Where “and” joins values, the source holds several entries; their conditions need not be identical. Equal entries are not always repeated. Non-standard residues stand in square brackets, D forms with d. Residues, ends and D or L forms follow the SMILES beside them. Hyp = O=C(O)[C@@H]1C[C@@H](O)CN1
Legend:
Male CF-1 mice = experiment: Mouse abdominal constriction test (phenylquinone-induced writhing); type: in vivo; details: for Change from Control (%): I.P.; for bradykinin agonist / antagonist activity in the assay: result in words, mouse abdominal constriction assay
Description: Compounds of the present invention are tested for analgesic activity using the mouse abdominal constriction assay. This assay is described in Hendershot, L.C., & J. Forsaith, "Antagonism of the Frequency of Phenylquinone-induced Writhing in the Mouse by Weak Analgesics and Nonanalgesics", J. Pharmacol., Vol. 125, (1959), pp. 237-240, and in Methods in Narcotics Research, S. Ehrenpreis and A. Neidle, (eds.), Marcel Dekker, Inc., New York (pub.), 1975, pp. 64-65, the disclosures of both these references being incorporated herein in their entirety by reference.
Male CF-1 mice (Charles River Breeding Laboratories, Inc.), weighing approximately 20 grams and food fasted overnight, are used in these assays. Test compounds are prepared for intraperitoneal (i.p.) injection, with compounds of the present invention being prepared in distilled deionized water so that the appropriate dose is given in 0.2 mls to a 20 gram mouse.
An i.p. injection of 0.02% phenylquinone (2.5 mg/kg) is given at a concentration of 0.25 ml/20 grams body weight. Five minutes later the mice receive an i.p. injection of test compound. Five minutes after the i.p. injection of test compound, the number of full body writhes are counted for the succeeding ten minutes. Percent analgesia in this assay is calculated as follows: [formula]
The mouse abdominal constriction assay was used to measure the antagonist activity of peptides of the present invention and related peptides as shown in Table 2: Table 2

Bradykinin receptor = target: T1, Bradykinin receptor (Mus musculus, UniProt P32299); experiment: Cell culture method: inhibition of bradykinin-induced increase in cytosolic free calcium in fura-2 loaded NG108-15 cells; type: cell-based; details: for agonist / antagonist activity in this assay: result in words
T1 construct: suspensions of cultured NG108-15 cells loaded with the Ca²⁺-sensitive fluorescent indicator fura-2; endogenous in cells; host or cells: NG108-15 cells (University of California at San Francisco, Cell Culture Facility)
T1 sequence (P32299 1-392): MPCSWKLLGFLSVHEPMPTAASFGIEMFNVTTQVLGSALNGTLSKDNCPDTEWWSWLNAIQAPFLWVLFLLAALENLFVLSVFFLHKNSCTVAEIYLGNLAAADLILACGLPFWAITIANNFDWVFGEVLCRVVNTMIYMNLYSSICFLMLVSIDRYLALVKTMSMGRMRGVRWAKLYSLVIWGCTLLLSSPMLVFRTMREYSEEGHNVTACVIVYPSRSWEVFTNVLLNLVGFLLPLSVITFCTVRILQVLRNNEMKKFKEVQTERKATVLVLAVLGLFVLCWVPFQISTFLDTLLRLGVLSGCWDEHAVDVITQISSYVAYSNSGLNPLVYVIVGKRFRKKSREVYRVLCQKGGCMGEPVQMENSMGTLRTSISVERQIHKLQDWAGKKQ
Description: In many different tissues and isolated cell populations, bradykinin induces a receptor mediated rise in the concentration of cytosolic free calcium ([Ca²⁺]i). In cultured NG108-15 neuronal cells (University of California at San Francisco, Cell Culture Facility, San Francisco, California), bradykinin increases [Ca²⁺]i in a dose dependent manner from a basal concentration of about 260 nM to approximately 1000 nM at a maximally effective concentration of bradykinin (1 X 10⁻⁶M). The half maximally effective concentration (EC₅₀) of bradykinin is 3 X 10⁻⁹M. Bradykinin receptor antagonist potency is evaluated by determining the concentration of antagonist required to inhibit by 50% (IC₅₀) the increase in [Ca²⁺]i induced by 1 X 10⁻⁹M bradykinin (Bachem, Torrance, CA). NG108-15 cells are cultured in […] Corning flasks (Fisher Scientific, Cincinnati, OH) in Dulbecco's modified minimal essential medium (high glucose; Gibco, Grand Island, NY) containing 5% fetal bovine serum (Hyclone, Logan, UT) and HAT (hypoxanthine-aminopterin-thymidine, Sigma, St. Louis, MO). The concentration of cytosolic free Ca²⁺ ([Ca²⁺]i) is measured in suspensions of cultured NG108-15 cells loaded with the Ca²⁺-sensitive fluorescent indicator fura-2 essentially as described by Osugi et al. (Journal Pharmacol. Exp. Ther., Vol. 240, (1987), pp. 617-622). Flasks of confluent cells are incubated for 60 minutes at 37°C in 20 mls of HEPES-buffered saline [140 mM NaCl, 5.4 mM KCl, 0.8 mM MgSO₄, 1.0 mM CaCl₂, 20 mM HEPES (N-2-. hydroxyethylpiperazine-N′-2-ethanesulfonic acid; Behring Diagnostics, LaJolla, CA), 10 mM glucose, 0.25% bovine serum albumin (Cat. #A-4503; Sigma Chemical Co., St. Louis, MO)] containing fura-2 acetoxymethyl ester (Molecular Probes, Inc., Eugene, OR) at a final concentration of 2 µM. The flasks are then washed twice with 30 mls of HEPES-buffered saline and the cells detached from the flasks in 15 mls of HEPES-buffered saline. The cell suspension is centrifuged at 25°C for 5 minutes at 350 x g and the cell pellet resuspended to a final volume of approximately 10 ml of HEPES-buffered saline/flask. The cell suspension is maintained at room temperature prior to use. The fluorescence of the fura-2 loaded NG108-15 cells is measured at an excitation wavelength of 340 nm (10 nM slit) and an emission wavelength of 500 nm (10 nM slit) in a Perkin-Elmer LS-5 fluorescence spectrophotometer fitted with a magnetic stirrer and a thermostatted cell holder. An aliquot of the cell suspension (1.37 ml) is placed in a cylindrical glass cuvette (internal diameter of 8 mm) containing a teflon coated stir bar and warmed to 37°C in a water bath. After 5 minutes, the cuvette is placed in the cell holder of the fluorometer and stirring is initiated just prior to the addition of a test sample. Routinely, a test sample (0.014 ml of a 100-fold concentration solution) is added to the cuvette 30 seconds prior to the addition of 1 X 10⁻⁹ M bradykinin. Fluorescence is recorded continuously during the addition of the test sample and bradykinin. Following completion of the fluorescence measurements, the cells are lysed with Triton X-100 at a final concentration of 10% (v/v) and the fluorescence of the Ca²⁺ saturated fura-2 (Fmax; fluorescence in the presence of 1 mM Ca²⁺) and the Mn²⁺-quenched fura-2 (autofluorescence (AF); fluorescence in the presence of 2 mM Mn²⁺) determined. […]

guinea pig ileum = experiment: Guinea pig ileum assay (muscle contraction); details: negative log of the dose causing half maximal contraction
Description: The bradykinin antagonists are assayed on guinea pig ileum for inhibition of the muscle-contracting activity of bradykinin, according to the commonly accepted assay method for bradykinin and related kinins as described in Stewart, J.M., "Chemistry and Biological Activity of Peptides Related to Bradykinin", Chapter V of Bradykinin, Kallidin and Kallikrein, (Handbook of Expt. Pharmacol.), E. G. Erdoes (ed.), Vol 25, Springer Verlag (pub.), 1970, pp. 242-243. The inhibition potencies are determined on isolated guinea pig ileum, according to the commonly accepted manner described for antagonists of biologically active compounds in Schild, H.O., "pA, a New Scale for the Measurement of Drug Antagonism", Br. J. Pharmacol., Vol. 2, No. 3 (1947), pp. 189-206). In the assay, a dose-response curve is determined for the reference substance bradykinin. The dose of bradykinin which produces a half maximal contraction of tissue is the ED₅₀ dose. An amount of bradykinin equivalent to twice the ED₅₀ dose is administered to the tissue 30 seconds after the start of incubation of the tissue with a dose of antagonist. Doses of antagonist are increased in this protocol until pre-incubation with a dose of antagonist reduces the contraction in response to the double ED₅₀ dose of bradykinin to response of a single ED₅₀ dose of bradykinin. […]

Row | Compound | bradykinin agonist / antagonist activity in the assay (Male CF-1 mice) | agonist / antagonist activity in this assay (Bradykinin receptor) | Change from Control (%) (Male CF-1 mice; Dose 50 mg/kg) | further results
1 | N=C(N)NCCC[C@H](NC(=O)[C@H](Cc1ccccc1)NC(=O)[C@@H](Cc1ccccc1)NC(=O)[C@H](CO)NC(=O)[C@H](Cc1ccccc1)NC(=O)CNC(=O)[C@@H]1C[C@@H](O)CN1C(=O)[C@@H]1CCCN1C(=O)[C@@H](N)CCCNC(=N)N)C(=O)O [Compound 1, H-Arg-Pro-Hyp-Gly-Phe-Ser-DPhe-Phe-Arg-OH, reference compound] (H-RP[Hyp]GFS[dF]FR-OH) | bradykinin agonist | high agonist (bradykinin-like) activity | – | Change from Control (%) (Male CF-1 mice; Dose 25 mg/kg, negative value = agonist): -31%; IC₅₀ (Bradykinin receptor; inhibition by 50% of the increase in [Ca²⁺]i induced by 1 X 10⁻⁹M bradykinin): Partial Agonist*
2 | N=C(N)NCCC[C@H](NC(=O)[C@H](Cc1ccccc1)NC(=O)[C@@H](Cc1ccccc1)NC(=O)[C@H](CO)NC(=O)[C@H](Cc1ccccc1)NC(=O)CNC(=O)[C@H](CC(N)=O)NC(=O)[C@@H]1CCCN1C(=O)[C@@H](N)CCCNC(=N)N)C(=O)O [Compound 2, H-Arg-Pro-Asn-Gly-Phe-Ser-DPhe-Phe-Arg-OH] (H-RPNGFS[dF]FR-OH) | bradykinin antagonist activity | Compounds 2 and 6 are peptides of the present invention and both exhibit only antagonist (no agonist) activity in this assay. | 57% | –
3 | N=C(N)NCCC[C@H](NC(=O)[C@H](Cc1ccccc1)NC(=O)[C@@H](Cc1ccccc1)NC(=O)[C@H](CO)NC(=O)[C@H](Cc1ccccc1)NC(=O)[C@H]1CCCN1C(=O)[C@H](CC(N)=O)NC(=O)[C@@H]1CCCN1C(=O)[C@@H](N)CCCNC(=N)N)C(=O)O [Compound 3, H-Arg-Pro-Asn-DPro-Phe-Ser-DPhe-Phe-Arg-OH] (H-RPN[dP]FS[dF]FR-OH) | bradykinin antagonist activity | – | 72% and 61% | –
4 | N=C(N)NCCC[C@@H](N)C(=O)N[C@@H](CCCNC(=N)N)C(=O)N1CCC[C@H]1C(=O)N[C@@H](CC(N)=O)C(=O)NCC(=O)N[C@@H](Cc1ccccc1)C(=O)N[C@@H](CO)C(=O)N[C@H](Cc1ccccc1)C(=O)N[C@@H](Cc1ccccc1)C(=O)N[C@@H](CCCNC(=N)N)C(=O)O [Compound 6, H-DArg-Arg-Pro-Asn-Gly-Phe-Ser-DPhe-Phe-Arg-OH] (H-[dR]RPNGFS[dF]FR-OH) | – | Compounds 2 and 6 are peptides of the present invention and both exhibit only antagonist (no agonist) activity in this assay. | – | –
5 | H-Arg-Pro-Aap-Gly-Phe-Ser-DPhe-Phe-Arg-OH [Compound 4] | bradykinin antagonist activity | – | 46% | –
6 | H-DArg-Arg-Pro-Hyp-Gly-Phe-Ser-DPhe-Phe-Arg-OH [Compound 5] | – | small amount of agonist activity | – | agonist activity (Bradykinin receptor; printed beside the IC₅₀): 10%
7 | bradykinin (RPPGFSPFR; Bradykinin; UniProt P01042 381-389, looked up) [naturally occurring agonist nonapeptide] | – | – | – | pD2 value (guinea pig ileum): 7.4; [Ca²⁺]i at maximally effective concentration (Bradykinin receptor; 1 X 10⁻⁶M bradykinin, basal concentration about 260 nM): approximately 1000 nM

— EP0334244A2, “Bradykinin Antagonist Peptides” (THE PROCTER & GAMBLE COMPANY, priority 1988, dated 1989)
